{"source": "patent US11497760B2", "about": "“Method for solubilizing poorly water-soluble dietary supplements and pharmaceutically active agents” (ATHENION AG, priority 2016, dated 2022)", "origin": "cited, not measured here", "key": {"P-glycoprotein": {"biological_target": "P-glycoprotein (Homo sapiens, UniProt P08183)", "sequence (P08183 whole entry)": "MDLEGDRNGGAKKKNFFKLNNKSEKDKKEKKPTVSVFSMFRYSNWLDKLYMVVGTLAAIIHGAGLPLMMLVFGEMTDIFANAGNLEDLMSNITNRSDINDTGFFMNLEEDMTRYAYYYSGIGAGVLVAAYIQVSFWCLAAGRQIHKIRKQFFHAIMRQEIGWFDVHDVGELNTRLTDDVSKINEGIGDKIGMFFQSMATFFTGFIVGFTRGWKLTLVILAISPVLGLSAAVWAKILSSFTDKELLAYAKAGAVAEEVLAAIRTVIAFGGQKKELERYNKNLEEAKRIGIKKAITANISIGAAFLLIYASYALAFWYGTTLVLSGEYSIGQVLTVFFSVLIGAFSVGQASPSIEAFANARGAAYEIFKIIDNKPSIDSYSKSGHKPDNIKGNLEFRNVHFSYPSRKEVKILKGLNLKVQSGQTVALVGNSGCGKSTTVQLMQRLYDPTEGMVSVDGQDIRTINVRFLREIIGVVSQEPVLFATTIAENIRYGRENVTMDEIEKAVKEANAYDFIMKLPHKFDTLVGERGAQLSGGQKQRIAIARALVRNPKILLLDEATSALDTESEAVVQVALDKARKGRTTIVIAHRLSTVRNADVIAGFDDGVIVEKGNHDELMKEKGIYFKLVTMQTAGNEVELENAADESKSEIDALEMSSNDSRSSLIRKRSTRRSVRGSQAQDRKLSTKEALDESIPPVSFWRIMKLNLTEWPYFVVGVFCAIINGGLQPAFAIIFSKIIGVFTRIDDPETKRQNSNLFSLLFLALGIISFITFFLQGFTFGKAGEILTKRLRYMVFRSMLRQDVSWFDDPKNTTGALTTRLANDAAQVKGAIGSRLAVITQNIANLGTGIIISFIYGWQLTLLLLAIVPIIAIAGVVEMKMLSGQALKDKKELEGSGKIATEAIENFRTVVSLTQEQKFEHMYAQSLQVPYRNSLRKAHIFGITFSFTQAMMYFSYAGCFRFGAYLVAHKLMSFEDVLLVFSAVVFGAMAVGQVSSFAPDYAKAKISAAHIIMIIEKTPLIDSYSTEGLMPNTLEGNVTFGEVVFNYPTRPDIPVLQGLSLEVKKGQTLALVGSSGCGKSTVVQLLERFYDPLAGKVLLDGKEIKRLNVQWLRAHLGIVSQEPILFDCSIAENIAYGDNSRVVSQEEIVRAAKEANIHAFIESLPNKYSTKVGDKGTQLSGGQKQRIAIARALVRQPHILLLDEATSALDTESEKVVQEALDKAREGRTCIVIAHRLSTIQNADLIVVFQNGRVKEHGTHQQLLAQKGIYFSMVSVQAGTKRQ"}, "human CYP3A4": {"biological_target": "human CYP3A4 (Homo sapiens, UniProt P08684)", "sequence (P08684 whole entry)": "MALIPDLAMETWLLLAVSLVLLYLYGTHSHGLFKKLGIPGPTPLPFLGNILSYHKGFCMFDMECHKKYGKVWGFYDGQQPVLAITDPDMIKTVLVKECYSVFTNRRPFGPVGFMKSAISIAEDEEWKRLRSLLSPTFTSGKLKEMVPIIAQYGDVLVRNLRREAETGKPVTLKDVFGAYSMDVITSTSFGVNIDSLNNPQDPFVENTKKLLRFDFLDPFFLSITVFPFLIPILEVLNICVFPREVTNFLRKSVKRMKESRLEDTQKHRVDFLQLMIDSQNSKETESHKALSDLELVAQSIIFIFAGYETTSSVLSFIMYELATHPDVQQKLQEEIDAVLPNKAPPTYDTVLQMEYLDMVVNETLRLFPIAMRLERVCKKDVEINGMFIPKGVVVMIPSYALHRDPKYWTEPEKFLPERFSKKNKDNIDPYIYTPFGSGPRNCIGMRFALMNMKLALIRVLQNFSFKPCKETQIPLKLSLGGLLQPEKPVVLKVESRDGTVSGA"}}, "data": [{"molecule": "O=C(C=CC=Cc1ccc2c(c1)OCO2)N1CCCCC1", "note": "[Piperine, 1-[5-(1,3-benzodioxol-5-yl)-1-oxo-2,4-pentadienyl]piperidine]", "values": [{"measurement": "inhibition of P-glycoprotein", "setting": "P-glycoprotein", "value": "inhibit"}, {"measurement": "inhibition of human CYP3A4", "setting": "human CYP3A4", "value": "inhibit"}]}]}
